The text below walks through data of patent publication US10501449B2 (priority 2018, dated 2019).

The assay addresses hROMK (human Kir1.1) (Homo sapiens (Human), UniProt P48048). The experiment in a line: cell-based. The conditions noted are these: CHO T-Rex hROMK stable cell line; thallium flux; 10-point concentration response curve; read-out: Human ROMK Th Flux IC50.

hROMK (human Kir1.1), sequence (P48048 whole entry): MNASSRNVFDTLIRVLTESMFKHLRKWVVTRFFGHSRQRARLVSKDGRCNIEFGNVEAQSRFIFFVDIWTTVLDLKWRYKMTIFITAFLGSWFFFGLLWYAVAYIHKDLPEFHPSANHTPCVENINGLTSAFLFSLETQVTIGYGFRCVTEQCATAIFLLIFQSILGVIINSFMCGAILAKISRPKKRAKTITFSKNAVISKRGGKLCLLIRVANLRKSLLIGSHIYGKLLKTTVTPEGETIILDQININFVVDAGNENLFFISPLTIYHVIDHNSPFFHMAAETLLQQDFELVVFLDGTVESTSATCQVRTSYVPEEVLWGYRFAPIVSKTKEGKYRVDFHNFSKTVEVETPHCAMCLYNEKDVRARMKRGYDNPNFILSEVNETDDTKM
Protocol: Solutions and reagents: Thallium flux assay was performed using FluxOR kit (F10017, Life Technologies). Loading buffer, assay buffer and stimulus buffer were prepared using kit components. HBSS (Hank's balanced salt solution, Cat#14025-092) was purchased separately from Life Technologies.
To prepare 10 ml of loading buffer: 10 μl of FluxOR dye (reconstituted in DMSO) was first added to 100 μl of powerload concentrate and this mix along with 100 μl of Probenicid (100×) was then added to 9.79 ml of HBSS. Assay buffer (10 ml) was prepared by addition of 2 ml of FluxOR chloride free buffer (5×), 100 μl of Probenicid (100×), and 0.2 ml of Ouabain (13.77 mM) to 7.7 ml of deionized water. Stimulus buffer was composed of 15 mM Tl2SO4, 0.75 mM K2SO4 in FluxOR chloride free buffer (diluted to 1× using deionized water). The final concentration of Tl2SO4 and K2SO4 in the assay plate was 3 mM and 0.15 mM, respectively.
Plating and induction of cells: The CHO T-Rex hROMK (human Kir1.1) stable cell line was maintained in Ham's F12 media supplemented with 10% FBS, 1% Penicillin-Streptomycin, 500 μg/ml Zeocin and 10 μg/ml Blasticidin at 37° C. in a 5% CO2 incubator. One day before the experiment, the cells were dissociated by incubation with Versene solution (15040-066, Life Technologies) for 10 minutes at 37° C. followed by addition of growth media. The cell suspension was centrifuged at 1200 rpm for 5 min. After discarding the supernatant, the cells were resuspended in fresh growth media and cell concentration was determined using a hemocytometer. Next, 0.5 μg/ml of Doxycycline was added to the cell suspension to induce hROMK channel expression and 50 μl (10,000 cells/well) of cell suspension was added to each well of a poly-D lysine coated 384 well black, optically clear bottom plate (6007718, Perkin Elmer). The assay plate was kept at 37° C. in a 5% CO2 incubator.
Assay protocol: On the day of experiment, media was removed and loading buffer was added (30 μl/well) to the assay plate. The cells were incubated in the loading buffer for 30 minutes at 37° C. The loading buffer was then replaced by assay buffer (30 μl/well) followed by addition of test compounds or controls. The cells were incubated with compounds for 30 minutes and the plate was then mounted on FlexStation (Molecular Devices) for fluorescence read out with excitation and emission wavelengths at 488 and 525 nm, respectively. Each well was read for 90 sec at 2 sec interval and the stimulus buffer was added after 20 seconds of baseline recording. The final DMSO concentration was either 0.5 or 1% in the assay plate. Positive and negative controls were defined by addition of DMSO or 3 μM of a standard ROMK inhibitor, respectively, to the wells instead of a test compound.
A 10-point concentration response curve was used to estimate the IC50 value of test compounds.

One may read the IC50 as the concentration that gives 50% inhibition. On to `COc1cc(-n2cnc(CN3C[C@@H](c4ccc5c(c4C)COC5=O)OC3=O)c2)ncc1C#N` [Example 78-I, (R)-4-methoxy-6-(4-((5-(4-methyl-1-oxo-1,3-dihydroisobenzofuran-5-yl)-2-oxooxazolidin-3-yl)methyl)-1H-imidazol-1-yl)nicotinonitrile], for which the IC50 is 810 nM.

Regarding `COc1c(CN2C[C@@H](c3ccc4c(c3C)COC4=O)OC2=O)cnn1-c1cc(C)c(C#N)cn1` [Example 79-I, (R)-6-(5-methoxy-4-((5-(4-methyl-1-oxo-1,3-dihydroisobenzofuran-5-yl)-2-oxooxazolidin-3-yl)methyl)-1H-pyrazol-1-yl)-4-methyl-nicotinonitrile], the IC50 was 320 nM.

As for `Cc1c([C@@H]2CN(Cc3cnn(-c4ccc5oc(=O)n(C)c5c4)c3)C(=O)O2)ccc2c1COC2=O` [Example 80-I, (R)-3-methyl-5-(4-((5-(4-methyl-1-oxo-1,3-dihydroisobenzofuran-5-yl)-2-oxooxazolidin-3-yl)methyl)-1H-pyrazol-1-yl)benzo[d]oxazol-2(3H)-one], the IC50 was 490 nM.

Turning to `Cc1cc(-c2ncc(CN3C[C@@H](c4ccc5c(c4C)COC5=O)N[C@@H](C)C3)s2)ncc1C#N` [Example 113-I, 4,4-methyl-6-(5-(((3S,5R)-3-methyl-5-(4-methyl-1-oxo-1,3-dihydroisobenzofuran-5-yl)piperazin-1-yl)methyl)thiazol-2-yl)nicotinonitrile], the IC50 was found to be 25 nM.

As for `Cc1cc(-n2cc(CN3C[C@@H](c4ccc5c(c4C)COC5=O)N[C@@H](C)C3)oc2=O)ncc1C#N` [Example 117-I, 4-methyl-6-(5-(((3S,5R)-3-methyl-5-(4-methyl-1-oxo-1,3-dihydroisobenzofuran-5-yl)piperazin-1-yl)methyl)-2-oxooxazol-3(2H)-yl)nicotinonitrile], the IC50 is 34 nM.

As to `Cc1cc(-n2cc(CN3C[C@@H](c4ccc5c(c4C)COC5=O)NC3=O)cn2)ncc1C#N` [Example 118-I, (R)-4-methyl-6-(4-((4-(4-methyl-1-oxo-1,3-dihydroisobenzofuran-5-yl)-2-oxoimidazolidin-1-yl)methyl)-1H-pyrazol-1-yl)nicotinonitrile], the IC50 was 290 nM.

Consider `Cc1cc(-n2cc(CN3C[C@@H](c4ccc5c(c4C)COC5=O)NS3(=O)=O)cn2)ncc1C#N` [Example 119-I, (R)-4-methyl-6-(4-((4-(4-methyl-1-oxo-1,3-dihydroisobenzofuran-5-yl)-1,1-dioxido-1,2,5-thiadiazolidin-2-yl)methyl)-1H-pyrazol-1-yl)nicotinonitrile], for which the IC50 amounted to 140 nM.

Consider `Cc1c([C@@H]2CN(Cc3ccc(-c4ccc(=O)n(C)n4)nc3)C[C@H](C)N2)ccc2c1COC2=O` [Example 120-I, 2-methyl-6-(5-(((3S,5R)-3-methyl-5-(4-methyl-1-oxo-1,3-dihydroisobenzofuran-5-yl)piperazin-1-yl)methyl)pyridin-2-yl)pyridazin-3(2H)-one], for which the IC50 is 160 nM.

With `Cc1cc(-c2nc(CN3CC[C@@H](O)[C@H](c4ccc5c(c4C)COC5=O)C3)co2)ncc1C#N` [Example 132-I, 6-(4-(((3R,4R)-4-hydroxy-3-(4-methyl-1-oxo-1,3-dihydroisobenzofuran-5-yl)piperidin-1-y)methyl)oxazol-2-yl)-4-methylnicotinonitrile], the IC50 is 170 nM.

For `Cc1c([C@@H]2CN(Cc3cnn(-c4ccc5oc(=O)n(C)c5c4C)c3)CCN2)ccc2c1COC2=O` [Example 135-I, (R)-3,4-dimethyl-5-(4-((3-(4-methyl-1-oxo-1,3-dihydroisobenzofuran-5-yl)piperazin-1-yl)methyl)-1H-pyrazol-1-yl)benzo[d]oxazol-2(3H)-one], the IC50 was 170 nM.

Turning to `Cc1c([C@@H]2CN(Cc3ccc(-n4cc(C(N)=O)cn4)nc3)CCN2)ccc2c1COC2=O` [Example 138-I, (R)-1-(5-((3-(4-methyl-1-oxo-1,3-dihydroisobenzofuran-5-yl)piperazin-1-yl)methyl)pyridin-2-yl)-1H-pyrazole-4-carboxamide], the IC50 was 670 nM.

For `Cc1cn(-c2cc(C(F)(F)F)c(CN3CCN[C@H](c4ccc5c(c4C)COC5=O)C3)cn2)cn1` [Example 147-I, (R)-4-methyl-5-(4-((6-(4-methyl-1H-imidazol-1-yl)-4-(trifluoromethyl)pyridin-3-yl)methyl)piperazin-2-yl)isobenzofurna-1(3H)-one], the IC50 worked out at 87 nM.

In the case of `Cc1cc(N2CCOC2=O)cc(-n2cc(CN3C[C@@H](c4ccc5c(c4C)COC5=O)N[C@@H](C)C3)cn2)c1` [Example 152-I, 3-(3-methyl-5-(4-(((3S,5R)-3-methyl-5-(4-methyl-1-oxo-1,3-dihydroisobenzofuran-5-yl)piperazin-1-yl)methyl)-1H-pyrazol-1-yl)phenyl)oxazolidin-2-one], the IC50 was 490 nM.

As to `Cc1c([C@@H]2CN(Cc3cnn(-c4ccc(S(C)(=O)=O)cn4)c3)C[C@H](C)N2)ccc2c1COC2=O` [Example 161-I, 4-methyl-5-((2R,6S)-6-methyl-4-((1-(5-(methylsulfonyl)pyridin-2-yl)-1H-pyrazol-4-yl)methyl)piperazin-2-yl)isobenzofuran-1(3H)-one], the IC50 turned out to be 170 nM.

In the case of `COc1cc(-n2cnc(CN3CC[C@@H](O)[C@H](c4ccc5c(c4C)COC5=O)C3)c2)ccc1C#N` [Example 162-I, 4-(4-(((3R,4R)-4-hydroxy-3-(4-methyl-1-oxo-1,3-dihydroisobenzofuran-5-yl)piperidin-1-yl)methyl)-1H-imidazol-1-yl)-2-methoxybenzonitrile], the IC50 was 260 nM.

In the case of `COc1cc(-n2cc(CN3C[C@@H](c4ccc5c(c4C)COC5=O)N[C@@H](C)C3)n(C(C)C)c2=O)ncc1C#N` [Example 172-I, 6-(3-isopropyl-4-(((3S,5R)-3-methyl-5-(4-methyl-1-oxo-1,3-dihydroisobenzofuran-5-yl)piperazin-1-yl)methyl)-2-oxo-2,3-dihydro-1H-imidazol-1-yl)-4-methoxynicotinonitrile], the IC50 amounted to 160 nM.

For `Cc1c([C@@H]2CN(Cc3ccc(-c4ccnc(N5CCOC5=O)c4)nc3)C[C@H](C)N2)ccc2c1COC2=O` [Example 174-I, 3-(5-(((3S,5R)-3-methyl-5-(4-methyl-1-oxo-1,3-dihydroisobenzofuran-5-yl)piperazin-1-yl)methyl)-[2,4′-bipyridin]-2′-yl)oxazolidin-2-one], the IC50 was found to be 220 nM.

`Cc1cc(-n2nnc(CN3C[C@@H](c4ccc5c(c4C)COC5=O)N[C@@H](C)C3)c2C)ncc1C#N` [Example 176-I, 4-methyl-6-(5-methyl-4-(((3S,5R)-3-methyl-5-(4-methyl-1-oxo-1,3-dihydroisobenzofuran-5-yl)piperazin-1-yl)methyl)-1H-1,2,3-triazol-1-yl)nicotinonitrile]: the IC50 worked out at 120 nM.

For `Cc1c([C@@H]2CN(Cc3cnn(-c4ccnc5c4ccn5C)c3)CCO2)ccc2c1COC2=O` [Example 177-I, (R)-4-methyl-5-(4-((1-(1-methyl-1H-pyrrolo[2,3-b]pyridin-4-yl)-1H-pyrazol-4-yl)methyl)morpholin-2-yl)isobenzofuran-1(3H)-one], the half-maximal inhibitory concentration (IC50) was found to be 500 nM.

For the compound `Cc1ccc(-n2cnc(CN3C[C@@H](c4ccc5c(c4C)COC5=O)N[C@@H](C)C3)c2)cc1` [Example 178-I, 4-methyl-5-((2R,6S)-6-methyl-4-((1-(p-tolyl)-1H-imidazol-4-yl)methyl)piperazin-2-yl)isobenzofuran-1(3h)-one], the IC50 turned out to be 220 nM.

`Cc1cnccc1-n1cnc(CN2C[C@@H](c3ccc4c(c3C)COC4=O)N[C@@H](C)C2)c1` [Example 179-I, 4-methyl-5-((2R,6S)-6-methyl-4-((1-(3-methylpyridin-4-yl)-1H-imidazol-4-yl)methyl)piperazin-2-yl)isobenzofuran-1(3H)-one]: the IC50 was 360 nM.

On to `Cc1ccc(-n2cnc(CN3C[C@@H](c4ccc5c(c4C)COC5=O)N[C@@H](C)C3)c2)cn1` [Example 180-I, 4-methyl-5-((2R,6S)-6-methyl-4-((1-(6-methylpyridin-3-yl)-1H-imidazol-4-yl)methyl)piperazin-2-yl)isobenzofuran-1(3H)-one], for which the IC50 came to 77 nM.

As to `Cc1cc(-n2cnc(CN3C[C@@H](c4ccc5c(c4C)COC5=O)N[C@@H](C)C3)c2)cc(C)n1` [Example 181-I, 5-((2R,6S)-4-((1-(2,6-dimethylpyridin-4-yl)-1H-imidazol-4-yl)methyl)-6-methylpiperazin-2-yl)-4-methylisobenzofuran-1(3H)-one], the IC50 was determined as 150 nM.

As to `Cc1c([C@@H]2CN(Cc3cn(-c4ccc5c(c4)OC(F)(F)O5)cn3)C[C@H](C)N2)ccc2c1COC2=O` [Example 182-I, 5-((2R,6S)-4-((1-(2,2-difluorobenzo[d][1,3]dioxol-5-yl)-1H-imidazol-4-yl)methyl)-6-methylpiperazin-2-yl)-4-methylisobenzofuran-1(3H)-one], the IC50 came out at 260 nM.

For the compound `Cc1cc(-c2cnc(CN3CCN[C@H](c4ccc5c(c4C)COC5=O)C3)nc2)ncc1C#N` [Example 183-I, (R)-4-methyl-6-(2-((3-(4-methyl-1-oxo-1,3-dihydroisobenzofuran-5-yl)piperazin-1-yl)methyl)pyrimidin-5-yl)nicotinonitrile], the IC50 stood at 180 nM.

Regarding `Cc1cc(-n2cc(CN3CCN[C@H](c4ccc5c(c4C)COC5=O)C3)nn2)nc(C)c1C#N` [Example 186-I, (R)-2,4-dimethyl-6-(4-((3-(4-methyl-1-oxo-1,3-dihydroisobenzofuran-5-yl)piperazin-1-yl)methyl)-1H-1,2,3-triazol-1-yl)nicotinonitrile], the IC50 was 18 nM.

As to `Cc1c([C@@H]2CN(Cc3cnc(-n4c(C)nnc4C)nc3)CCN2)ccc2c1COC2=O` [Example 201-I, (R)-5-(4-((2-(3,5-dimethyl-4H-1,2,4-triazol-4-yl)pyrimidn-5-yl)methyl)piperazin-2-yl)-4-methylisobenzofuran-1(3H)-one], the IC50 is 190 nM.

For the compound `Cc1c(C#N)ccnc1-n1cc(CN2C[C@@H](c3ccc4c(c3C)COC4=O)N[C@@H](C)C2)cn1` [Example 202-I, 3-methyl-2-(4-(((3S,5R)-3-methyl-5-(4-methyl-1-oxo-1,3-dihdyroisobenzofuran-5-yl)piperazin-1-yl)methyl)-1H-pyrazol-1-yl)isonicotinonitrile], the IC50 was 140 nM.
